Data from patent EP0233461B2, “4,5,6-Substituted-2-pyrimidinamines” (AMERICAN CYANAMID COMPANY, priority 1986, dated 1987).

What follows are compounds tested on human basophils (assay: Inhibition of histamine release from immunologically stimulated human basophils). Conditions: Homo sapiens, concentration causing 50% inhibition of histamine release, by linear regression; active if IC50 ≦ 48 µM; read-out: IC50.
Assay type: cell-based
How it was run: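 Leukocytes from sedimented human blood, washed in Tris-A and resuspended in Tris-ACM, were challenged with anti-IgE or antigen, with or without compound, for 60 min at 37 °C. Released histamine was measured fluorometrically after OPT derivatization and expressed as percent of total (perchloric acid lysate), corrected for spontaneous release.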

| Structure (SMILES) | IC50 [nM] |
| --- | --- |
| CC(NC=O)c1ccc(Nc2nccc(-c3cccnc3)n2)cc1 (stereo not shown) [N-[1-[4-[[4-(3-Pyridinyl)-2-pyrimidinyl]amino]phenyl]ethyl]formamide] | 400 |
| CCc1cccc(Nc2nccc(-c3ccccn3)n2)c1 [N-(3-Ethylphenyl)-4-(2-pyridinyl)-2-pyrimidinamine] | 1400 |
| CC(=O)Nc1ccc(Nc2nccc(-c3ccncc3)n2)cc1C [N-[2-Methyl-4-[[4-(4-pyridinyl)-2-pyrimidinyl]amino]phenyl]acetamide] | 1200 |
| CN(C)c1ccc(Nc2nccc(-c3cccs3)n2)cc1 [N,N-Dimethyl-N'-[4-(2-thienyl)-2-pyrimidinyl]-1,4-benzenediamine] | 600 |
